For 14 compounds, IC50 results are on record in patent EP0386611A2, “Amino acid derivatives” (F. HOFFMANN-LA ROCHE AG, priority 1989, dated 1990).

One experiment deals with T1, HIV protease (Human immunodeficiency virus type 1 group M subtype B, UniProt P04585).
T1 construct: HIV protease was expressed in E. coli and partially purified from soluble extracts; made in house; host or cells: E. coli
In words: In vitro inhibition of HIV protease (spectrophotometric assay of N-terminal proline from cleavage of substrate S¹ or S²). Type of experiment: biochemical. Conditions: citrate buffer pH 5.5, 37°C. As to the method: HIV protease was expressed in E. coli and partially purified from soluble extracts of the bacterium by ammonium sulphate fractionation (0-30%). Protease activity was assayed using as the substrate the protected hexapeptide succinyl-Ser-Leu-Asn-Tyr-Pro-Ile isobutylamide (S¹) or the protected heptapeptide succinyl-Val-Ser-Gln-Asn-Phe-Pro-Ile isobutylamide (S²). Cleavage of the substrate was quantified by measuring the production of H-Pro-Ile isobutylamide by the spectrophotometric assay of N-terminal proline.
1.25 mM of substrate S¹ or 0.68 mM of substrate S² were dissolved in 125 mM of citrate buffer (pH 5.5) containing 0.125 mg/ml of Tween 20. 10 µl of a solution of various concentrations of the test compound (dissolved in methanol or dimethyl sulphoxide and diluted with water containing 0.1% Tween 20) and 10 µl of protease were added to 80 µl of the respective buffered substrate. Digestion was carried out at 37°C for a fixed period of time and was terminated by the addition of 1 ml of colour reagent [30 µg/ml of isatin and 1.5 mg/ml of 2-(4-chlorobenzoyl)benzoic acid in 10% acetone in ethanol (vol./vol.)]. The solution was heated in a boiling water bath for 15 minutes and then the pigmented residues were re-dissolved in 1 ml of 1% pyrogallol in 33% water in acetone (wt./vol./vol.). The optical density of the solution was measured spectrophotometrically at 599 nm. The formation of H-Pro-Ile isobutylamide in the presence of the test compound was compared with controls and the concentration of test compound required to give 50% inhibition (IC₅₀) was determined by means of a graph plotted from the various concentrations of test compound used.
In the above test the determination of the IC₅₀ values for potent inhibitors is limited by mutual depletion. In this respect, substrate S² is more sensitive than substrate S¹ and this allows reduced protease concentrations to be used, which results in lower IC₅₀ values. This will be seen from the results presented in the Table hereinafter where in turn the 2nd run with substrate S² was carried out using a lower protease concentration than in the 1st run which results again in lower IC₅₀ values.

Another experiment has as its system HTLV-III (strain RF). In words: In vitro antiviral activity: HTLV-III (strain RF) in C8166 cells, p24 antigen capture assay. Type of experiment: cell-based. Conditions: Human immunodeficiency virus 1; concentration that produces 50% protection; C8166 cells infected with ten times the TCD₅₀, 72 hours at 37°C, viral protein 24 antigen capture; read-out: IC₅₀ Activity against HIV. As to the method: This assay uses HTLV-III (strain RF) grown in C8166 cells (a human CD4⁺ T lymphoblastoid line) using RPM1 1640 medium with bicarbonate buffer, antibiotics and 10% foetal bovine serum.
A suspension of cells is infected with ten times the TCD₅₀ of virus and adsorption allowed to proceed for 90 minutes at 37°C. The cells are washed three times with medium. The test is carried out in 6 ml tissue culture tubes, each tube containing 2 x 10⁵ infected cells in 1.5 ml of medium. Test compounds are dissolved in either aqueous medium or dimethyl sulphoxide, according to solubility, and a 15 µl solution of the compound added. The cultures are incubated at 37°C for 72 hours in a humidified atmosphere containing 5% carbon dioxide in air. The cultures are then centrifuged and an aliquot of the supernatant solubilized with Nonidet P40 and subjected to an antigen capture assay which uses a primary antiserum with particular reactivity against the viral protein 24 and a horseradish peroxidase detection system. Colour generation is measured spectrophotometrically and plotted against the concentration of test compound. The concentration that produces 50% protection is determined (IC₅₀).

Where [1] appears, read: substrate S² (succinyl-Val-Ser-Gln-Asn-Phe-Pro-Ile isobutylamide), 0.68 mM, 1st run, read-out: IC₅₀ Inhibition of HIV protease S² 1st run.
The mark [2] stands for this setting: substrate S², 0.68 mM, 2nd run, lower protease concentration than in the 1st run, read-out: IC₅₀ Inhibition of HIV protease S² 2nd run.
Where [3] appears, read: substrate S¹ (succinyl-Ser-Leu-Asn-Tyr-Pro-Ile isobutylamide), 1.25 mM, read-out: IC₅₀ Inhibition of HIV protease S¹.

Like-named read-outs stand apart in the source and are kept apart here. Bounds are passed on as bounds.

In the case of `CC[C@H](C)[C@H](NC(=O)[C@@H](C[C@H](O)[C@H](CC1CCCCC1)NC(=O)OC(C)(C)C)C(C)C)C(=O)NCCc1ccccc1` [Compound A, N²-[5(S)-(tert.Butoxyformamido)-6-cyclohexyl-4(S)-hydroxy-2(S)-isopropylhexanoyl]-N¹-phenethyl-L-isoleucinamide], the IC50 at HIV protease (setting [1]) was determined as 4.5 nM; on HIV protease (setting [2]), 0.62 nM; on HIV protease (setting [3]), 12 nM; in the experiment on HTLV-III (strain RF), 100 nM.

For `CC[C@H](C)[C@H](NC(=O)[C@@H](C[C@H](O)[C@H](CC1CCCCC1)NC(=O)OC(C)(C)C)C(C)C)C(=O)N[C@@H](Cc1ccccc1)C(=O)OC` [Compound B, N-[N-[5(S)-(tert.Butoxyformamido)-6-cyclohexyl-4(S)-hydroxy-2(S)-isopropylhexanoyl]-L-isoleucyl]-L-phenylalanine methyl ester], the IC50 was determined as 3.4 nM on HIV protease (setting [1]), 0.48 nM on HIV protease (setting [2]) and 20 nM at HIV protease (setting [3]).

Turning to `CC[C@H](C)[C@H](NC(=O)[C@@H](C[C@H](O)[C@H](CC1CCCCC1)NC(=O)OC(C)(C)C)C(C)C)C(=O)NCc1ccccc1` [Compound C, N²-[5(S)-(tert.Butoxyformamido)-6-cyclohexyl-4(S)-hydroxy-2(S)-isopropylhexanoyl]-N¹-benzyl-L-isoleucinamide], the IC50 on HIV protease (setting [1]) is 3.3 nM; at HIV protease (setting [3]) it was 15 nM; in the experiment with HTLV-III (strain RF), 7 nM.

As for `CC[C@H](C)[C@H](NC(=O)[C@@H](C[C@H](O)[C@H](CC1CCCCC1)NC(=O)OC(C)(C)C)C(C)C)C(=O)NCCc1ccccn1` [Compound D, N²-[5(S)-(tert.Butoxyformamido)-6-cyclohexyl-4(S)-hydroxy-2(S)-isopropylhexanoyl]-N¹-[2-(2-pyridyl)ethyl]-L-isoleucinamide], the IC50 on HIV protease (setting [1]) came to 2.5 nM; on HIV protease (setting [2]) it was 0.52 nM; in the experiment on HTLV-III (strain RF), 20 nM.

As to `CC[C@H](C)[C@H](NC(=O)[C@@H](C[C@H](O)[C@H](CC1CCCCC1)NC(=O)OC(C)(C)C)C(C)C)C(=O)NC1Cc2ccccc2C1` [Compound E, N²-[5(S)-(tert.Butoxyformamido)-6-cyclohexyl-4(S)-hydroxy-2(S)-isopropylhexanoyl]-N¹-(2-indanyl)-L-isoleucinamide], the IC50 was found to be 4.3 nM on HIV protease (setting [1]), 2.2 nM on HIV protease (setting [2]) and 70 nM with HTLV-III (strain RF).

`CC[C@H](C)[C@H](NC(=O)[C@@H](C[C@H](O)[C@H](CC1CCCCC1)NC(=O)OC(C)(C)C)C(C)C)C(=O)NCCN1CCOCC1` [Compound F, N²-[5(S)-(tert.Butoxyformamido)-6-cyclohexyl-4(S)-hydroxy-2(S)-isopropylhexanoyl]-N¹-(2-morpholinoethyl)-L-isoleucinamide]: the figures for the IC50 at HIV protease (setting [1]), on HIV protease (setting [2]) and with HTLV-III (strain RF) were 4 nM, 1.9 nM and 100 nM, respectively.

Regarding `CC[C@H](C)[C@H](NC(=O)[C@@H](C[C@H](O)[C@H](Cc1ccccc1)NC(=O)OC(C)(C)C)C(C)C)C(=O)NCCc1ccccc1` [Compound G, N²-[5(S)-(tert.Butoxyformamido)-4(S)-hydroxy-2(S)-isopropyl-6-phenylhexanoyl]-N¹-phenethyl-L-isoleucinamide], the IC50 was determined as 4.1 nM at HIV protease (setting [1]), 0.89 nM at HIV protease (setting [2]), 32 nM at HIV protease (setting [3]) and 100 nM in the experiment on HTLV-III (strain RF).

`CC[C@H](C)[C@H](NC(=O)[C@@H](C[C@H](O)[C@H](CC1CCCCC1)NC(=O)OCc1ccccc1)C(C)C)C(=O)NCCc1ccccc1` [Compound H, N²-[5(S)-Benzyloxyformamido-6-cyclohexyl-4(S)-hydroxy-2(S)-isopropylhexanoyl]-N¹-phenethyl-L-isoleucinamide]: the IC50 on HIV protease (setting [1]) worked out at 3 nM; on HIV protease (setting [2]), 0.91 nM; at HIV protease (setting [3]) it was 22 nM; in the experiment on HTLV-III (strain RF), 60 nM.

Take `CC[C@H](C)[C@H](NC(=O)[C@@H](C[C@H](O)[C@H](CC1CCCCC1)NC(=O)[C@H](CC(N)=O)NC(=O)OCc1ccccc1)C(C)C)C(=O)NCCc1ccccc1` [Compound I, N²-[5(S)-[[N-(Benzyloxycarbonyl)-L-asparaginyl]amino]-6-cyclohexyl-4(S)-hydroxy-2(S)-isopropylhexanoyl]-N¹-phenethyl-L-isoleucinamide]: the IC50 stood at 2.5 nM on HIV protease (setting [1]), 0.39 nM on HIV protease (setting [2]), 80 nM on HIV protease (setting [3]) and 9 nM with HTLV-III (strain RF).

On to `CC[C@H](C)[C@H](NC(=O)[C@@H](C[C@H](O)[C@H](CC1CCCCC1)NC(=O)CC(C)(C)C)C(C)C)C(=O)NCCc1ccccc1` [Compound J, N²-[5(S)-(tert.Butylacetamido)-6-cyclohexyl-4(S)-hydroxy-2(S)-isopropylhexanoyl]-N¹-phenethyl-L-isoleucinamide], for which the IC50 stood at 7.7 nM at HIV protease (setting [1]) and 100 nM with HTLV-III (strain RF).

In the case of `CC[C@H](C)[C@H](NC(=O)[C@@H](C[C@H](O)[C@H](CC1CCCCC1)NC(=O)[C@H](CC#N)NC(=O)OCc1ccccc1)C(C)C)C(=O)NCCc1ccccc1` [Compound K, N²-[5(S)-[[N-(Benzyloxycarbonyl)-β-cyano-L-alanyl]amino]-6-cyclohexyl-4(S)-hydroxy-2(S)-isopropylhexanoyl]-N¹-phenethyl-L-isoleucinamide], the IC50 at HIV protease (setting [2]) turned out to be 1.6 nM; in the experiment with HTLV-III (strain RF), 4 nM.

As for `CC[C@H](C)[C@H](NC(=O)[C@@H](C[C@H](O)[C@H](CC1CCCCC1)NC(=O)OC(C)(C)C)C(C)C)C(=O)NCCN1CCN(C(=O)OCc2ccccc2)CC1` [Compound L, N¹-[2-[4-(Benzyloxycarbonyl)-1-piperazinyl]ethyl]-N²-[5(S)-(tert.butoxyformamido)-6-cyclohexyl-4(S)-hydroxy-2(S)-isopropylhexanoyl]-L-isoleucineamide], the IC50 is 2.7 nM on HIV protease (setting [2]) and 5 nM with HTLV-III (strain RF).

As for `CC[C@H](C)[C@H](NC(=O)[C@@H](C[C@H](O)[C@H](CC1CCCCC1)NC(=O)OC(C)(C)C)C(C)C)C(=O)NCCc1ccc(O)cc1` [Compound M, N²-[5(S)-(tert.Butoxyformamido)-6-cyclohexyl-4(S)-hydroxy-2(S)-isopropylhexanoyl]-N¹-[2-(4-hydroxyphenyl)ethyl]-L-isoleucinamide], the IC50 at HIV protease (setting [2]) was determined as 3.7 nM; with HTLV-III (strain RF), 10 nM.

Take `CC[C@H](C)[C@H](NC(=O)[C@H](C(C)C)[C@@H](O)[C@H](O)[C@H](CC1CCCCC1)NC(=O)OC(C)(C)C)C(=O)NCCN1CCN(C(=O)OCc2ccccc2)CC1` [Compound N, N¹-[2-[4-(Benzyloxycarbonyl)-1-piperazinyl]ethyl]-N²-[5(S)-(tert.butoxyformamido)-6-cyclohexyl-3(R),4(R)-dihydroxy-2(R)-isopropylhexanoyl]-L-isoleucinamide]: the results for the IC50 on HIV protease (setting [2]) and in the experiment with HTLV-III (strain RF) were 4.1 nM and less than 100 nM, respectively.
